# Data taken from PMC7377239, “Cardiovascular Effects of Polychlorinated Biphenyls and Their Major Metabolites” (Environmental Health Perspectives, 2020).
# Where a name gives a salt, the structure may show the parent alone. Read-outs that look alike come from different tables or passages of the source.
# Tested on: iCell cardiomyocytes (human iPSC-derived cardiomyocytes)
# Experiment: High-content imaging of cytotoxicity and mitochondrial integrity in iPSC-CMs
# Assay type: cell-based
# Conditions: for minimal effective concentration / viability at 0.01 µM / activity at 0.01 µM / viability at 0.1 µM / activity at 0.1 µM / viability at 1 µM / activity at 1 µM / viability at 10 µM / activity at 10 µM / viability at 100 µM / activity at 100 µM: Homo sapiens; for viability at 0.01 µM / activity at 0.01 µM / viability at 0.1 µM / activity at 0.1 µM / viability at 1 µM / activity at 1 µM / viability at 10 µM / activity at 10 µM / viability at 100 µM / activity at 100 µM: 0.00 µM = 100.00; for viability at 0.1 µM / activity at 0.1 µM: 0.10 µM
# Summary of the method: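 Cardiomyocytes grown on gelatinized 384-well plates received fresh medium on the experiment day and were then exposed to chemicals at 0.01–100μM. Nuclei and mitochondria were labeled with Hoechst 33342 and MitoTracker™ Orange, then fixed, and imaged on an ImageXpress® Micro Confocal system. Four-parameter logistic concentration–response fits in R, with a one-standard-deviation vehicle cutoff, gave point-of-departure values.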
# [1] = Cardiomyocyte, 1.5 h, cardiomyocytes (cm), cam, 90 min, read-out: POD cm.cam.90min
# [2] = Cardiomyocyte, 1.5 h, cardiomyocytes (cm), mii, 90 min, read-out: POD cm.mii.90min
# [3] = Cardiomyocyte, 1.5 h, cardiomyocytes (cm), mito, 90 min, read-out: POD cm.mito.90min
# [4] = Cardiomyocyte, 1.5 h, cardiomyocytes (cm), tc, 90 min, read-out: POD cm.tc.90min
# [5] = Cardiomyocyte, 24 h, cardiomyocytes (cm), cam, 24 hrs, read-out: POD cm.cam.24hrs
# [6] = Cardiomyocyte, 24 h, cardiomyocytes (cm), mii, 24 hrs, read-out: POD cm.mii.24hrs
# [7] = Cardiomyocyte, 24 h, cardiomyocytes (cm), mito, 24 hrs, read-out: POD cm.mito.24hrs
# [8] = Cardiomyocyte, 24 h, cardiomyocytes (cm), tc, 24 hrs, read-out: POD cm.tc.24hrs
# [9] = Cardiomyocyte, 1.5 h, read-out: cm.cam.90min
# [10] = Cardiomyocyte, 1.5 h, read-out: cm.mii.90min
# [11] = Cardiomyocyte, 1.5 h, read-out: cm.mito.90min
# [12] = Cardiomyocyte, 1.5 h, read-out: cm.tc.90min
# [13] = Cardiomyocyte, 24 h, read-out: cm.cam.24hrs
# [14] = Cardiomyocyte, 24 h, read-out: cm.mii.24hrs
# [15] = Cardiomyocyte, 24 h, read-out: cm.mito.24hrs
# [16] = Cardiomyocyte, 24 h, read-out: cm.tc.24hrs
compound,measurement,setting,value
"Clc1ccc(-c2ccccc2)cc1 [PCB 3, 4-chlorobiphenyl]",minimal effective concentration,[1],24.9 µM
same,minimal effective concentration,[2],6.86 µM
same,minimal effective concentration,[3],21.2 µM
same,minimal effective concentration,[4],20 µM
same,minimal effective concentration,[5],7.4 µM
same,minimal effective concentration,[6],10.9 µM
same,minimal effective concentration,[7],6.67 µM
same,minimal effective concentration,[8],6.97 µM
O=S(=O)(O)Oc1cc(-c2ccccc2)ccc1Cl [3-yl PCB 3 sulfate],viability at 0.01 µM,[9],100%
same,activity at 0.01 µM,[10],110%
same,activity at 0.01 µM,[11],100%
same,viability at 0.01 µM,[12],101%
same,viability at 0.1 µM,[9],97.4%
same,activity at 0.1 µM,[10],109%
same,activity at 0.1 µM,[11],97.4%
same,viability at 0.1 µM,[12],97.6%
same,viability at 1 µM,[9],104%
same,activity at 1 µM,[10],106%
same,activity at 1 µM,[11],104%
same,viability at 1 µM,[12],104%
same,viability at 10 µM,[9],106%
same,activity at 10 µM,[10],98.4%
same,activity at 10 µM,[11],106%
same,viability at 10 µM,[12],106%
same,viability at 100 µM,[9],104%
same,activity at 100 µM,[10],108%
same,activity at 100 µM,[11],104%
same,viability at 100 µM,[12],104%
same,viability at 0.01 µM,[13],87.7%
same,activity at 0.01 µM,[14],113%
same,activity at 0.01 µM,[15],86%
same,viability at 0.01 µM,[16],88.2%
same,viability at 0.1 µM,[13],99.9%
same,activity at 0.1 µM,[14],109%
same,activity at 0.1 µM,[15],99.5%
same,viability at 0.1 µM,[16],101%
same,viability at 1 µM,[13],96.5%
same,activity at 1 µM,[14],102%
same,activity at 1 µM,[15],93.7%
same,viability at 1 µM,[16],96.4%
same,viability at 10 µM,[13],91.9%
same,activity at 10 µM,[14],89.9%
same,activity at 10 µM,[15],88.6%
same,viability at 10 µM,[16],92.3%
same,viability at 100 µM,[13],96.9%
same,activity at 100 µM,[14],83.9%
same,activity at 100 µM,[15],97.6%
same,viability at 100 µM,[16],97.8%
same,minimal effective concentration,"iPSC-CM, 1.5 h, iPSC-CM, read-out: cm.cam.90min POD",100 µM
same,minimal effective concentration,"iPSC-CM, 1.5 h, iPSC-CM, read-out: cm.mii.90min POD",100 µM
same,minimal effective concentration,"iPSC-CM, 1.5 h, iPSC-CM, read-out: cm.mito.90min POD",100 µM
same,minimal effective concentration,"iPSC-CM, 1.5 h, iPSC-CM, read-out: cm.tc.90min POD",100 µM
same,minimal effective concentration,"iPSC-CM, 24 h, iPSC-CM, read-out: cm.cam.24hrs POD",100 µM
same,minimal effective concentration,"iPSC-CM, 24 h, iPSC-CM, read-out: cm.mii.24hrs POD",22.8 µM
same,minimal effective concentration,"iPSC-CM, 24 h, iPSC-CM, read-out: cm.mito.24hrs POD",100 µM
same,minimal effective concentration,"iPSC-CM, 24 h, iPSC-CM, read-out: cm.tc.24hrs POD",100 µM
"COc1ccc(-c2ccc(Cl)cc2)cc1 [4'-OMe-PCB 3, 4′-methoxy-4-chlorobiphenyl]",minimal effective concentration,[1],100 µM
same,minimal effective concentration,[2],100 µM
same,minimal effective concentration,[3],100 µM
same,minimal effective concentration,[4],100 µM
same,minimal effective concentration,[5],82.9 µM
same,minimal effective concentration,[6],100 µM
same,minimal effective concentration,[7],100 µM
same,minimal effective concentration,[8],100 µM
same,effect on cell viability in iPSC-CMs,"iPSC-CMs, 0.01-100 μM, 90 min and 24 h",little effect on cell viability
